Measurements reported in paper PMC12352625, “Double crossed? Structural and computational studies of an unusually crosslinked haem in Methylococcus capsulatus cytochrome P460” (Chemical Science, 2025).

Target: T1, McP460 (cytochrome P460 from Methylococcus capsulatus (Bath)) (Methylococcus capsulatus, UniProt G1UBD9)
T1 construct: gene MCA0524; recombinant from E. coli; covalent c-type P460 haem (Cys140, Cys143, His144, Lys78)
T1 sequence (G1UBD9 18-161): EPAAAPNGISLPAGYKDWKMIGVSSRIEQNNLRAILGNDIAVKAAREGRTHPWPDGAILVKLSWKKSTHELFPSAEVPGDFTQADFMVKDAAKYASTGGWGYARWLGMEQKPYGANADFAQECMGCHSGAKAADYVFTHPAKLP
Assay: DCPIP reduction assay; N2O by GC-MS; nitrite by Griess assay
Assay type: biochemical
Settings: 5 uM enzyme, 6 uM PMS, 2 mM [Ru(NH3)6]Cl3, 0-1000 uM hydroxylamine for product assays; anaerobic or aerobic

NO [hydroxylamine]
DCPIP reduction assay; N2O by GC-MS; nitrite by Griess assay: assays were carried out to assess the protein's ability to oxidise hydroxylamine, and product formation
